This note sets out measurements from ChEMBL document CHEMBL1201862, “PubChem BioAssay data set” (2004).

Test systems include CAKI-1; CCRF-CEM; COLO 205; DU-145; HCC 2998; K562; MDA-MB-435; Malme-3M; NCI-H460; OVCAR-4; OVCAR-8; PC-3; RXF 393; SK-MEL-5; SK-OV-3; SNB-19; SNB-75; TK-10; U-251; UO-31.
What all share (assay): NCI-60 cell line screen, 48 h

SMILES strings stand for the structures.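 A five-concentration, 48-hour dose response in 96-well plates underlies each endpoint, interpolated linearly between surrounding concentrations. At the GI50, growth is halved.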 Calls of active or inactive are those of the source. Cut-off read from the data, not from the text of the source: active = GI50 up to about 1.1 µM and inactive = higher. A value given as a limit tells only on which side of the number the result lay.

`c1ccc(/C(=N/Nc2ccccn2)c2cccnn2)cc1`: the GI50 in the assay with CAKI-1 is 1.75 µM (inactive); with CCRF-CEM it was 0.767 µM (active); with COLO 205 it was 0.741 µM (active); in the assay with DU-145, 2.62 µM (inactive); in the assay on HCC 2998, 5.37 µM (inactive); with K562, 1.47 µM (inactive). Further, the GI50 in the assay with MDA-MB-435 is 4.73 µM (inactive); in the assay with Malme-3M, 5.4 µM (inactive); in the assay with NCI-H460 it was 1.34 µM (inactive); in the assay on OVCAR-4, > 84.5 µM (inactive); with OVCAR-8 it was 1.87 µM (inactive); with PC-3 it was 5.86 µM (inactive). Moreover, the GI50 is 15.7 µM (inactive) with RXF 393; 2.35 µM (inactive) with SK-MEL-5; 2.58 µM (inactive) in the assay with SK-OV-3; 10.3 µM (inactive) in the assay on SNB-19; 2.78 µM (inactive) in the assay on SNB-75; 98.6 µM (inactive) in the assay with TK-10. Further, the GI50 in the assay with U-251 is 4.21 µM (inactive); with UO-31, 0.885 µM (active).

As for `CC1=NN(C(=O)c2ccccc2O)C(=O)/C1=C/c1cccc([N+](=O)[O-])c1`, the GI50 in the assay on CAKI-1 was 2.2 µM (inactive); in the assay with CCRF-CEM it was 2.77 µM (inactive); with COLO 205, 29 µM (inactive); in the assay with DU-145, 1.55 µM (inactive); with HCC 2998, 36.1 µM (inactive); in the assay on K562, 0.364 µM (active). Besides, the GI50 in the assay with MDA-MB-435 was 0.451 µM (active); in the assay with Malme-3M, 21.1 µM (inactive); in the assay on NCI-H460, 0.658 µM (active); with OVCAR-4 it was 3.55 µM (inactive); with OVCAR-8, 0.889 µM (active); with PC-3, 7.06 µM (inactive). The GI50 is 0.189 µM (active) in the assay with RXF 393; 2.57 µM (inactive) in the assay with SK-MEL-5; 15.3 µM (inactive) with SK-OV-3; 0.385 µM (active) in the assay with SNB-19; 0.449 µM (active) in the assay with SNB-75; 15.6 µM (inactive) in the assay on TK-10. The GI50 with U-251 was 0.512 µM (active); in the assay with UO-31, 0.596 µM (active).

With `O=C1C=CC(=O)c2c1ccc1c3ccccc3n(Cc3ccccc3)c21`, the GI50 is 17.2 µM (inactive) in the assay on CAKI-1; 1.8 µM (inactive) with CCRF-CEM; 18.9 µM (inactive) in the assay on COLO 205; > 80.4 µM (inactive) in the assay with DU-145; > 37 µM (inactive) in the assay on HCC 2998; 2.84 µM (inactive) with K562. For the same compound, the GI50 in the assay with MDA-MB-435 was 26.1 µM (inactive); in the assay with Malme-3M, 16.6 µM (inactive); in the assay on NCI-H460, > 43.2 µM (inactive); in the assay on OVCAR-4, 13.3 µM (inactive); in the assay with OVCAR-8 it was 28.2 µM (inactive); in the assay with PC-3, 21.8 µM (inactive). Besides, the GI50 in the assay with RXF 393 was 16.8 µM (inactive); with SK-MEL-5, 32.3 µM (inactive); in the assay on SK-OV-3 it was > 100 µM (inactive); in the assay on SNB-19, > 100 µM (inactive); with SNB-75 it was > 82.8 µM (inactive); in the assay with TK-10, 18.6 µM (inactive). The GI50 in the assay with U-251 was 51.9 µM (inactive); in the assay with UO-31, 20.2 µM (inactive).

As to `COc1cc2c(cc1O)NC(=S)[C@@H]1CCCN1C2=O`, the GI50 is > 100 µM (inactive) with CAKI-1; 76.6 µM (inactive) in the assay with CCRF-CEM; > 100 µM (inactive) in the assay on COLO 205; > 100 µM (inactive) in the assay with DU-145; > 100 µM (inactive) in the assay with HCC 2998; > 100 µM (inactive) in the assay with K562. Also, the GI50 in the assay on MDA-MB-435, in the assay with Malme-3M, in the assay with NCI-H460, in the assay on OVCAR-4, in the assay on OVCAR-8 and with PC-3 was > 100 µM (inactive) in each case. Also, the GI50 in the assay on RXF 393, in the assay on SK-MEL-5, with SK-OV-3, in the assay on SNB-19, with SNB-75 and in the assay with TK-10 was > 100 µM (inactive) in each case. For the same compound, the GI50 in the assay on U-251 and in the assay on UO-31 was > 100 µM (inactive) throughout.

Consider `O=C(N/N=C\c1cccc2ccccc12)Nc1ccc([N+](=O)[O-])cc1`, for which the GI50 was 42.1 µM (inactive) in the assay on CAKI-1; 24.3 µM (inactive) in the assay with CCRF-CEM; 17.1 µM (inactive) with COLO 205; 15.3 µM (inactive) in the assay on DU-145; 15.8 µM (inactive) in the assay with HCC 2998; 5.58 µM (inactive) in the assay on K562. The GI50 is 18.9 µM (inactive) in the assay with MDA-MB-435; 14.2 µM (inactive) with Malme-3M; 10.9 µM (inactive) in the assay with NCI-H460; 8.04 µM (inactive) in the assay with OVCAR-4; 7.64 µM (inactive) with OVCAR-8; 6.95 µM (inactive) in the assay on PC-3. Moreover, the GI50 in the assay on RXF 393 was 7.13 µM (inactive); with SK-MEL-5, 22.6 µM (inactive); with SK-OV-3, 24.6 µM (inactive); with SNB-19 it was 21.4 µM (inactive); in the assay on SNB-75, 38.9 µM (inactive); with TK-10, 4.94 µM (inactive). Moreover, the values for the GI50 in the assay with U-251 and in the assay with UO-31 were 17.1 µM (inactive) and 12.8 µM (inactive), respectively.

Consider `CN(C)c1ccc(/C=c2\c3ccccc3n3c2cc(-c2ccccc2)[n+]3C)cc1`, for which the GI50 is 0.716 µM (active) in the assay on CAKI-1; 0.0635 µM (active) in the assay with CCRF-CEM; 0.0143 µM (active) in the assay with COLO 205; 0.222 µM (active) with DU-145; 1.35 µM (inactive) with HCC 2998; 0.07 µM (active) in the assay on K562. Further, the GI50 with MDA-MB-435 was 0.0916 µM (active); in the assay with Malme-3M, 0.153 µM (active); in the assay with NCI-H460 it was 0.103 µM (active); with OVCAR-4, 0.809 µM (active); in the assay with OVCAR-8, 0.0726 µM (active); with PC-3, 0.0726 µM (active). Also, the GI50 was 0.547 µM (active) in the assay on RXF 393; 0.0728 µM (active) with SK-MEL-5; 0.303 µM (active) with SK-OV-3; 0.0771 µM (active) with SNB-19; 0.061 µM (active) with SNB-75; 0.624 µM (active) with TK-10. The GI50 with U-251 is 0.0322 µM (active); in the assay on UO-31, 0.383 µM (active).

In the case of `CC(C)C1(C)N=C(C(F)(F)F)c2cc(C(=O)C(F)(F)F)c3ccccc3c2N1` (stereo not given), the GI50 with CAKI-1 was 3.34 µM (inactive); in the assay with CCRF-CEM it was 15.8 µM (inactive); in the assay with COLO 205, 4.14 µM (inactive); in the assay on DU-145, 3.71 µM (inactive); in the assay on HCC 2998, 3.69 µM (inactive); with K562, 3.96 µM (inactive). Further, the GI50 with MDA-MB-435 was 3.21 µM (inactive); in the assay with Malme-3M it was 3 µM (inactive); in the assay on NCI-H460, 4.41 µM (inactive); in the assay with OVCAR-4, 4.91 µM (inactive); with OVCAR-8 it was 4.17 µM (inactive); in the assay with PC-3, 2.52 µM (inactive). The GI50 was 2.71 µM (inactive) with RXF 393; 10.7 µM (inactive) in the assay on SK-MEL-5; 15 µM (inactive) in the assay with SK-OV-3; 4.14 µM (inactive) in the assay with SNB-19; 2.31 µM (inactive) in the assay with SNB-75; 4.51 µM (inactive) in the assay with TK-10. Moreover, the GI50 in the assay on U-251 is 2.91 µM (inactive); in the assay on UO-31 it was 5.9 µM (inactive).
